This passage reports Ki results from patent US8710076B2, “2,5-disubstituted piperidine orexin receptor antagonists” (Merck Sharp & Dohme Corp., priority 2008, dated 2014).

pKi: −log10 of the molar value.

The target of the assay is orexin-2 receptor (OX2R) (Homo sapiens (Human), UniProt O43614). Kind of assay: radioligand binding assay, membranes from CHO cells expressing OX2. The settings on record: membranes prepared from CHO cells expressing OX2. On the procedure: The utility of the compounds in accordance with the present invention as orexin receptor OX1R and/or OX2R antagonists may be readily determined without undue experimentation by methodology well known in the art, including the “FLIPR Ca^2+Flux Assay” (Okumura et al., Biochem. Biophys. Res. Comm. 280:976-981, 2001). In a typical experiment the OX1 and OX2 receptor antagonistic activity of the compounds of the present invention was determined in accordance with the following experimental method. For intracellular calcium measurements, Chinese hamster ovary (CHO) cells expressing the rat OX1 receptor or the human OX2 receptor, are grown in Iscove's modified DMEM containing 2 mM L-glutamine, […], 1% hypoxanthine-thymidine supplement, 100 U/ml penicillin, 100 ug/ml streptomycin and 10% heat-inactivated fetal calf serum (FCS). The cells are seeded at 20,000 cells/well into Becton-Dickinson black 384-well clear bottom sterile plates coated with poly-D-lysine. All reagents were from GIBCO-Invitrogen Corp. The seeded plates are incubated overnight at 37° C. and 5% CO2. Ala-6,12 human orexin-A as the agonist is prepared as a 1 mM stock solution in 1% bovine serum albumin (BSA) and diluted in assay buffer (HBSS containing 20 mM HEPES, 0.1% BSA and 2.5 mM probenecid, pH7.4) for use in the assay at a final concentration of 70 pM. Test compounds are prepared as 10 mM stock solution in DMSO, then diluted in 384-well plates, first in DMSO, then assay buffer. On the day of the assay, cells are washed 3 times with 100 ul assay buffer and then incubated for […] (37° C., 5% CO2) in 60 ul assay buffer containing 1 uM Fluo-4AM ester, 0.02% pluronic acid, and 1% BSA. The dye loading solution is then aspirated and cells are washed 3 times with 100 ul assay buffer. 30 ul of that same buffer is left in each well. Within the Fluorescent Imaging Plate Reader (FLIPR, Molecular Devices), test compounds are added to the plate in a volume of 25 ul, incubated for 5 min and finally 25 ul of agonist is added. Fluorescence is measured for each well at 1 second intervals for 5 minutes and the height of each fluorescence peak is compared to the height of the fluorescence peak induced by 70 pM Ala-6,12 orexin-A with buffer in place of antagonist. […] Alternatively, compound potency can be assessed by a radioligand binding assay (described in Bergman et. al. Bioorg. Med. Chem. Lett. 2008, 18, 1425-1430) in which the inhibition constant (Ki) is determined in membranes prepared from CHO cells expressing either the orexin-1 (OX1) or orexin-2 (OX2) receptor. The intrinsic orexin receptor antagonist activity of a compound which may be used in the present invention may be determined by these assays.
Chain of orexin-2 receptor (OX2R) (O43614 whole entry): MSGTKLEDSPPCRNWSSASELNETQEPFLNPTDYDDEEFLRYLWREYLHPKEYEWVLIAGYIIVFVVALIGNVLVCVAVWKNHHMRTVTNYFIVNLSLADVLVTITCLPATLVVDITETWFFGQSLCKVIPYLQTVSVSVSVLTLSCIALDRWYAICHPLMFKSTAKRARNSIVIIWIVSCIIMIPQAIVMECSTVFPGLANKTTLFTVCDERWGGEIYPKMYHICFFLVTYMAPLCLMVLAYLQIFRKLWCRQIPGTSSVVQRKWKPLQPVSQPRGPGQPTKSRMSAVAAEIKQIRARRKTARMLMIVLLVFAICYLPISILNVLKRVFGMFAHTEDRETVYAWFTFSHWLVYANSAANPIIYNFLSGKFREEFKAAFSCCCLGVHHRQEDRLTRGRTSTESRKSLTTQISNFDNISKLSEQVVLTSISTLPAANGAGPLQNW
As a reminder, the pKi is the negative decadic logarithm of the Ki, by convention in mol/L. Read a low pKi as a large Ki. `C[C@@H]1CC[C@@H](Oc2cccc3ocnc23)CN1C(=O)c1ccccc1-n1nccn1` (mixture of isomers) [1-1, (2R,5R)- and (2S,5S)-4-({6-methyl-1-[2-(2H-1,2,3-triazol-2-yl)benzoyl]piperidin-3-yl}oxy)-l,3-benzoxazole] gave a pKi of 7.74.
For `C[C@@H]1CC[C@@H](Oc2ccnc3c(F)cccc23)CN1C(=O)c1ccccc1-n1nccn1` [E-2] the value was 9.26.
The same measure for `C[C@@H]1CC[C@@H](Oc2nccc3ccccc23)CN1C(=O)c1ccccc1-n1nccn1` [F-2, 1-({(2R,5R)-6-methyl-1-[2-(2H-1,2,3-triazol-2-yl)benzoyl]piperidin-3-yl}oxy)-isoquinoline]: 9.96; for `Cc1ccc(-n2nccn2)c(C(=O)N2C[C@H](Nc3nccc4ccccc34)CC[C@H]2C)c1` [H-4, N-{(2R,5R)-6-methyl-1-[5-methyl-2-(2H-1,2,3-triazol-2-yl)benzoyl]piperidin-3-yl}isoquinolin-1-amine]: 9.25.
